Assay results reported in patent EP1064944A1, “Protein kinase N inhibitor comprising Fasudil” (priority 1999, dated 2001).

What was measured:
[1] = target: human-recombinant protein kinase N (Homo sapiens, UniProt Q16512); experiment: Measurement of inhibition activity of protein kinase N (PKN); assay type: biochemical
Description: The PKN reaction was carried out in 50 µl reaction buffer (20mM Tris HCI pH 7.5, 8mM MgCl2) containing (i) 40µM PKCα peptide ([…]) as a substrate of PKN, (ii) 1 µM GTPγS form GST-RhoA (prepared by the method of Method in ENZYMOLOGY Vol. 256 Small GTPases and Their Regulators Part B Rho Family P.3-10), (iii) 50µM, 20µM, 10µM and 5µM (as the final concentration of the reaction mixture) of ATP and 0.5µl of [γ-^32P] ATP (1.11 TBg/mmol, 74MBg/ml; supplied by NEN™ Life Science Product, Inc.), and (iv) a purified human-recombinant protein kinase N (prepared by using a Baculovirus expression system), in the presence of or in the absence of 1 µM of hexahydro-1-(5-isoquinolinesulfonyl)-1H-1,4-diazepine hydrochloride (Fasudil Hydrochloride). 30µl of the reaction mixture was spotted onto Whatman paper P81 (supplied by Whatman International Ltd.) after the incubation for 10 minutes at 30°C. After the spotting, the spotted Whatman paper was washed with 75mM phosphoric acid 5 times. Then incorporation of ^32P into the PKCα peptide on the washed paper was assessed by scintillation counting. Based on the assessment by scintillation counting, Km value was measured by Lineweaver-Burk plot (method), then K, value was calculated.

ROCK = ROCK (Homo sapiens, UniProt Q13464); experiment: ROCK inhibition (from Table 1 of Nature vol. 389, p. 991); assay type: biochemical; conditions: based on the Ki values of Table 1 of Nature vol. 389, p. 991
Source text: According to Table 1 of Nature vol. […] 389, p. 991/30 October 1997 based on the Ki values.

[2] = tested on: Rat MM-1 Ascites Hepatoma cells bearing V14 Rho A; experiment: Peritoneal invasion of Rat MM-1 ascites hepatoma cells bearing V14 Rho A (carcinomatous peritonitis model); assay type: in vivo, male Donryu rats; conditions: after 11 days, 5 rats
Description: MMI ascites hepatoma cells (2x10^7) stably expressing Val 14-RhoA were injected into the peritoneal cavities of male Donryu rats (body weight 100g) (to obtain a model of rat having MM-1 ascites Hepatoma cells bearing V14 Rho A). Fasudil was intravenously delivered at the indicated dose (0, 0.1 mg/Kg, 1 mg/Kg, and 10 mg/Kg) 3 times per day. After 11 days, the animals were sacrificed and (i) tumor nodules and tumor cell dissemination on peritoneum were assessed (This test was conducted by the method which is similar to one described in Nature Medicine Volume 5, Number 2, February 1999, p.223-225 and was conducted with 5 rats at each dose.). In addition, hyperemia of the surface in the peritoneum was also observed.

[3] = 0.1 mg/Kg intravenously 3 times per day
[4] = 1 mg/Kg intravenously 3 times per day
[5] = 10 mg/Kg intravenously 3 times per day

human-recombinant protein kinase N, sequence (Q16512 whole entry): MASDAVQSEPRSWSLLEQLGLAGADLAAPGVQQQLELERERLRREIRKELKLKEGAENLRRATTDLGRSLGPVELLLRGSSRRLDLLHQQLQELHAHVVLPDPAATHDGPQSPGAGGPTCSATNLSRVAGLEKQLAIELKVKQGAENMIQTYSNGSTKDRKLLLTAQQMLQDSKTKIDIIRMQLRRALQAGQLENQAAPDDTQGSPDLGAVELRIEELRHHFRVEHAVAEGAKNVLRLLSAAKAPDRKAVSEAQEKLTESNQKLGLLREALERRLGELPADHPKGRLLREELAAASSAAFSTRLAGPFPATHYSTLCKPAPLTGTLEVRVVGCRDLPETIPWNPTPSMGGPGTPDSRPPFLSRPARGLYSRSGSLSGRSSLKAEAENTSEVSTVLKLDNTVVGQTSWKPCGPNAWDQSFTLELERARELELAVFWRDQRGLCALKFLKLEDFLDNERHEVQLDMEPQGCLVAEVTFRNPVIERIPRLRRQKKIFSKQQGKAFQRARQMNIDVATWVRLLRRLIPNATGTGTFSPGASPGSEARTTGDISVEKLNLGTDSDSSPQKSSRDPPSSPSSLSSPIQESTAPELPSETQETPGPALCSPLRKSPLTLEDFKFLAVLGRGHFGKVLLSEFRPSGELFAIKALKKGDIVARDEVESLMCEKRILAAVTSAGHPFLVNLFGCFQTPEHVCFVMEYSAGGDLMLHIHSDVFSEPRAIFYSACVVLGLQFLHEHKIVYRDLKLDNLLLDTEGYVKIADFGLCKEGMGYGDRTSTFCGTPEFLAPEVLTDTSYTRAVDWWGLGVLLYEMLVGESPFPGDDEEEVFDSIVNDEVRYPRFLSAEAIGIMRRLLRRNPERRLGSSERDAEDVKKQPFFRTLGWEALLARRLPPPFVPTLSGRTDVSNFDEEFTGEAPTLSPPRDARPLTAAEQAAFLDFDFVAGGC
human-recombinant protein kinase N, sequence (P61586 whole entry partner): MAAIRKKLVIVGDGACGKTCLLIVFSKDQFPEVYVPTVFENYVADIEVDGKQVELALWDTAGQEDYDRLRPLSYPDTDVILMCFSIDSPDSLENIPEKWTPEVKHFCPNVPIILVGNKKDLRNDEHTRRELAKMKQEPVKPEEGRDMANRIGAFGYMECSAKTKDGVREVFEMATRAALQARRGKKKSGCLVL
ROCK, sequence (Q13464 whole entry): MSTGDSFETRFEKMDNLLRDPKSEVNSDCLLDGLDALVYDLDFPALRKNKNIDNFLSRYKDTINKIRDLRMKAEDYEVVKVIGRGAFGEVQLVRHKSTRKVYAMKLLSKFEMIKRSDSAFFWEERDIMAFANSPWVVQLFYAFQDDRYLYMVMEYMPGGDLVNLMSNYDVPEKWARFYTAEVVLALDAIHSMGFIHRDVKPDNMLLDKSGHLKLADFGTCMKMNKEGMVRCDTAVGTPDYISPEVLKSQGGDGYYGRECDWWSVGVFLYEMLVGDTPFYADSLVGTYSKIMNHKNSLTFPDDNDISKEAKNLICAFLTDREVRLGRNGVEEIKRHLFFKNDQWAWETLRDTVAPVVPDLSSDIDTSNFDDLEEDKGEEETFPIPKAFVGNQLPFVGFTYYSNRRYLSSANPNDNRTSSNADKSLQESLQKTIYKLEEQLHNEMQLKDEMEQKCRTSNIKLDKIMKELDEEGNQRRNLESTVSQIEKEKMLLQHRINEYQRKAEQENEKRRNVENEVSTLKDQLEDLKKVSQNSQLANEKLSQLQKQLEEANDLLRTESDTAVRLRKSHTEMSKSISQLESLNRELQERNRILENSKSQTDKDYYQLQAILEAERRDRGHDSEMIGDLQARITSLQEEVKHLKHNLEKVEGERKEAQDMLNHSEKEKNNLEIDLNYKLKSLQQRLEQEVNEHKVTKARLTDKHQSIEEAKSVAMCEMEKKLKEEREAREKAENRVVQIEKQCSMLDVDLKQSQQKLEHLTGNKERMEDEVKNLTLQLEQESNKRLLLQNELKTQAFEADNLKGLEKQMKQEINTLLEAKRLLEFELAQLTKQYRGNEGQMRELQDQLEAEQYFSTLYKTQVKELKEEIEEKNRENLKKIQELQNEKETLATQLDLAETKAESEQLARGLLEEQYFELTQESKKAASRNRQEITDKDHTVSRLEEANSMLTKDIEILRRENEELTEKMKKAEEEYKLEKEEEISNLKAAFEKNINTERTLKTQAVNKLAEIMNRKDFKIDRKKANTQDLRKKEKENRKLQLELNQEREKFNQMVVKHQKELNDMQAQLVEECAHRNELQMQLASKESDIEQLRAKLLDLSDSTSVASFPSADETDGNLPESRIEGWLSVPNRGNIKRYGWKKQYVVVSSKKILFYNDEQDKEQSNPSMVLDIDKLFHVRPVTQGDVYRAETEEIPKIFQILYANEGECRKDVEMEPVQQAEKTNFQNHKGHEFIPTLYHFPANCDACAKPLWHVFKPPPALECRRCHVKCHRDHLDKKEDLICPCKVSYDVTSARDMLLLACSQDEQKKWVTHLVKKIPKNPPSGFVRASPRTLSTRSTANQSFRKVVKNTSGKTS

Cl.O=S(=O)(c1cccc2cnccc12)N1CCCNCC1 [Fasudil Hydrochloride, hexahydro-1-(5-isoquinolinesulfonyl)-1H-1,4-diazepine hydrochloride]
Ki ([1]; 1 µM Fasudil Hydrochloride, ATP 50, 20, 10 and 5 µM, Lineweaver-Burk plot, 10 minutes at 30°C): 922 nM
PKN inhibitory activity relative to the inhibitory activity of protein kinase C ([1]; based on the Ki values, protein kinase C Ki from Table 1 of Nature vol. 389, p. 991): ten times higher
ROCK inhibitory activity relative to the inhibitory activity of protein kinase C (ROCK): 28 times
Hyperemia of the surface in the peritoneum [2, 3]: + (25-50% of surface in the peritoneum shows hyperemia)
Total number of tumor nodules on peritoneum [2, 3]: 22
Hyperemia of the surface in the peritoneum [2, 4]: ± (less than 25% of surface in the peritoneum shows hyperemia)
Total number of tumor nodules on peritoneum [2, 4]: 11
Hyperemia of the surface in the peritoneum [2, 5]: ± (less than 25% of surface in the peritoneum shows hyperemia)
Total number of tumor nodules on peritoneum [2, 5]: 0
